# Data: ChEMBL document CHEMBL2073915, “Broad-spectrum modulation of ATP-binding cassette transport proteins by the taxane derivatives ortataxel (IDN-5109, BAY 59-8862) and tRA96023” (Cancer Chemother Pharmacol, 2004)
# What was measured:
# Assay type in all cases: functional, cell-based
# Details in all cases: mcf7r
# [1] = biological target: T1, ATP-dependent translocase ABCB1 (Homo sapiens, UniProt P08183); assay: TP_TRANSPORTER: efflux of 3uM mitoxantrone in the presence of tRA96023 at a concentration of 10uM in MCF7/R cells
# T1 sequence (P08183 whole entry): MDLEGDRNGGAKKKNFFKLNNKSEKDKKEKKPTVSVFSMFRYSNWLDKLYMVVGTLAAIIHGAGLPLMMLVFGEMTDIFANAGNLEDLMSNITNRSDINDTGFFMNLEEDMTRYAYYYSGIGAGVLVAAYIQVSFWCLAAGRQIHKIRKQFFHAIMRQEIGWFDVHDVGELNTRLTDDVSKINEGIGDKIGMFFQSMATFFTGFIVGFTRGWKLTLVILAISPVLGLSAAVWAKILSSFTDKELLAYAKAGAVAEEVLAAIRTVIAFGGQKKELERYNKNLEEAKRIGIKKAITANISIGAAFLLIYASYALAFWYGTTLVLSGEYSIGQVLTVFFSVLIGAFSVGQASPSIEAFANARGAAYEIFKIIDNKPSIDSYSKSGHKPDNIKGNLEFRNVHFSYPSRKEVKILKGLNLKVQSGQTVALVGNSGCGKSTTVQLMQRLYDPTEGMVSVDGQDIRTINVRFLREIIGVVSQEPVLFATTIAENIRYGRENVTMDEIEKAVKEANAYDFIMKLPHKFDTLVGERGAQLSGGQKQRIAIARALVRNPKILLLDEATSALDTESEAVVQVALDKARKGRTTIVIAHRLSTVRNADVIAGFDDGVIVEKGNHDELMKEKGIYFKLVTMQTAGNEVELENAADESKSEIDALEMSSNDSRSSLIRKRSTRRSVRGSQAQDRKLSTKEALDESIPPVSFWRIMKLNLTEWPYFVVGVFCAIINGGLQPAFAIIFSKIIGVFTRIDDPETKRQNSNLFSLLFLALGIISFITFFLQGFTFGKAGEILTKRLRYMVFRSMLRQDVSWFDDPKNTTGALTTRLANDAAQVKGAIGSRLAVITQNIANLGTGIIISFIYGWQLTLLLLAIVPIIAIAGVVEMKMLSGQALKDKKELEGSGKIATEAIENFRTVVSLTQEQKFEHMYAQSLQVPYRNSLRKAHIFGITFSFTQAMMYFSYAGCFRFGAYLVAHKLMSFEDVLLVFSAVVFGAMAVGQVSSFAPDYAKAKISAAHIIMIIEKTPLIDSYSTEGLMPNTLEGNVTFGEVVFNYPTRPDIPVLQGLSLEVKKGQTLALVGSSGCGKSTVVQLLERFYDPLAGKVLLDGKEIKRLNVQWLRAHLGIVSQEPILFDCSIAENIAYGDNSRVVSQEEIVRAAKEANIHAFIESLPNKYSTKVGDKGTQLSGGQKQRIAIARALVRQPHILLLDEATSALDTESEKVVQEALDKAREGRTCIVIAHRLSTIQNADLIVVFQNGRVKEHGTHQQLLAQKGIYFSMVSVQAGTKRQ
# [2] = biological target: T1, ATP-dependent translocase ABCB1; assay: TP_TRANSPORTER: efflux of 3uM mitoxantrone by Fumitremorgin C at 10uM in MCF7/R cells
# [3] = biological target: T1, ATP-dependent translocase ABCB1; assay: TP_TRANSPORTER: efflux of mitoxantrone (Mitoxantrone: 3uM) in the presence of Ortataxel at a concentration of 10uM in MCF7/R cells
# [4] = biological target: T1, ATP-dependent translocase ABCB1; assay: TP_TRANSPORTER: efflux of 3uM mitoxantrone in the presence of Probenecid at 1mM in MCF7/R cells
# [5] = biological target: T1, ATP-dependent translocase ABCB1; assay: TP_TRANSPORTER: efflux of 3uM mitoxantrone in the presence of PSC-833 (Valspodar) at a concentration of 2.5uM in MCF7/R cells
structure (smiles),measurement,setting,value
CC(=O)O[C@H]1C(=O)[C@@]2(C)C([C@H](OCc3ccccc3)C3(O)C[C@H](OC(C)=O)C(C)=C1C3(C)C)[C@]1(OC(C)=O)CO[C@@H]1C[C@@H]2OC(=O)/C=C/c1ccc(C(=O)c2ccccc2)cc1 (stereo not given in full),Activity,[1],inhibitor [+]
COc1ccc2c3c([nH]c2c1)[C@H](C=C(C)C)N1C(=O)[C@@H]2CCCN2C(=O)[C@@H]1C3 [FUMITREMORGIN],Activity,[2],is not an inhibitor [-]
CC(=O)O[C@H]1C(=O)[C@@]2(C)[C@H]([C@H](OC(=O)c3ccccc3)[C@]34OC(=O)O[C@H]3[C@H](OC(=O)[C@H](O)[C@H](CC(C)C)NC(=O)OC(C)(C)C)C(C)=C1C4(C)C)[C@]1(OC(C)=O)CO[C@@H]1C[C@@H]2O [ORTATAXEL],Activity,[3],inhibitor [+]
CCCN(CCC)S(=O)(=O)c1ccc(C(=O)O)cc1 [PROBENECID],Activity,[4],is not an inhibitor [-]
C/C=C/C[C@@H](C)C(=O)[C@H]1C(=O)N[C@@H](C(C)C)C(=O)N(C)CC(=O)N(C)[C@@H](CC(C)C)C(=O)N[C@@H](C(C)C)C(=O)N(C)[C@@H](CC(C)C)C(=O)N[C@@H](C)C(=O)N[C@H](C)C(=O)N(C)[C@@H](CC(C)C)C(=O)N(C)[C@@H](CC(C)C)C(=O)N(C)[C@@H](C(C)C)C(=O)N1C [VALSPODAR],Activity,[5],inhibitor [+]
